Experiment [1] deals with Kelch domain of human KEAP1 (321-624 aa) (Homo sapiens (Human), UniProt Q14145). The experiment in a line: KEAP1 KELCH ThermoFluor binding assay.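 Further: Ligand-induced melting temperature shift of E. coli-expressed KEAP1 Kelch protein, Kd estimated from concentration-response curves of ΔTm.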 The following applies: KEAP Kelch […], 1,8-ANS, pH 7.0, average of results obtained, read-out: Tf Kd. (In DSF a fluorescence change marks the thermal transition of the protein.)
In experiment [2] the test system is Glo-Response ARE-luc2P HEK293 cell line. The experiment in a line: ARE luciferase reporter cell-based assay.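 Further: luciferase signal tracks Nrf2 activation of the ARE once compounds disrupt KEAP1-Nrf2 binding, read with One-Glo reagent, DMSO serving as low control.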 The following applies: Homo sapiens, HEK293, 24 h, average of results obtained.

pEC50, pKd: −log10 of the molar value.

Results on twelve compounds are retold here after patent US10947252B2, “Inhibitors of KEAP1-Nrf2 protein-protein interaction” (Janssen Pharmaceutica NV, priority 2018, dated 2021).

What is called pKd is −log10 of the Kd, conventionally taken in molar units. The pEC50 is the negative decadic logarithm of the EC50, by convention in mol/L. Low values mean a large EC50, high ones a small EC50.

Sequence of Kelch domain of human KEAP1 (321-624 aa) (Q14145 321-624): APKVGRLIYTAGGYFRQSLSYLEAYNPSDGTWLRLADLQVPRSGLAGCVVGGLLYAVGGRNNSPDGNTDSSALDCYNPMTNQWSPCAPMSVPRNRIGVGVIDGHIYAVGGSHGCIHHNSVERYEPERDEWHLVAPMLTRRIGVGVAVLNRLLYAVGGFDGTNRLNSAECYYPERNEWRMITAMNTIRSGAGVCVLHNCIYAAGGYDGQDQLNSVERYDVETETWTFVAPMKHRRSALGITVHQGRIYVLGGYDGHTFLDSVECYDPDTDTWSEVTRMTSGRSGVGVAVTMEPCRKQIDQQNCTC

For `Cc1ccc([C@@H](CC(=O)O)c2ccn3c(C(F)F)nnc3c2C)cc1CN1CC2(CC2)Oc2ncc(F)cc2S1(=O)=O` (single isomer, unassigned) [Example 528, (*R)-3-(3-(Difluoromethyl)-8-methyl-[1,2,4]triazolo[4,3-a]pyridin-7-yl)-3-(3-((8′-fluoro-1′,1′-dioxidospiro[cyclopropane-1,4′-pyrido[2,3-b][1,4,5]oxathiazepin]-2′(3′H)-yl)methyl)-4-methylphenyl)propanoic Acid], the pKd in experiment [1] is > 9.00. In experiment [2], this compound had a pEC50 of 6.63.
In the same order, the values of `Cc1ccc([C@H](CC(=O)O)c2ccn3c(C(F)F)nnc3c2C)cc1CN1C[C@]2(C)CCCN2c2ncccc2S1(=O)=O` (single isomer, unassigned) [Example 476, (*S)-3-(3-(Difluoromethyl)-8-methyl-[1,2,4]triazolo[4,3-a]pyridin-7-yl)-3-(4-methyl-3-(((*S)-7a-methyl-5,5-dioxido-7a,8,9,10-tetrahydropyrido[2,3-f]pyrrolo[2,1-d][1,2,5]thiadiazepin-6(7H)-yl)methyl)phenyl)propanoic Acid] are > 9.00 and 6.66.
In the same order, the values of `Cc1ccc([C@@H](c2ccn3c(C(F)(F)F)nnc3c2C)C(C)(C)C(=O)O)cc1CN1CC2(CC2)Oc2nc(OCCN3CCCC3)c(C)cc2S1(=O)=O` (single isomer, unassigned) [Example 373, (*S)-2,2-Dimethyl-3-(4-methyl-3-((8′-methyl-1′,1′-dioxido-7′-(2-(pyrrolidin-1-yl)ethoxy)spiro[cyclopropane-1,4′-pyrido[2,3-b][1,4,5]oxathiazepin]-2′(3′H)-yl)methyl)phenyl)-3-(8-methyl-3-(trifluoromethyl)-[1,2,4]triazolo[4,3-a]pyridine-7-yl)propanoic Acid] are > 9.00 and 8.27.
In the same order, the values of `Cc1ccc([C@H](CC(=O)O)c2ccn3c(C(F)(F)F)nnc3c2C)cc1CN1CC2(CC2)Oc2ncc(Cl)cc2S1(=O)=O` (single isomer, unassigned) [Example 195, (*S)-3-(3-((8′-Chloro-1′,1′-dioxidospiro[cyclopropane-1,4′-pyrido[2,3-b][1,4,5]oxathiazepin]-2′(3′H)-yl)methyl)-4-methylphenyl)-3-(8-methyl-3-(trifluoromethyl)-[1,2,4]triazolo[4,3-a]pyridin-7-yl)propanoic Acid] are > 9.00 and 8.24.
As to `CCn1nnc2c(C)c([C@H](CC(=O)O)c3ccc(C)c(CN4C[C@@H]5CCCCN5c5ncccc5S4(=O)=O)n3)ccc21` (single isomer, unassigned) [Example 302, (*S)-3-(6-(((*S)-5,5-Dioxido-7,7a,8,9,10,11-hexahydro-6H-dipyrido[2,1-d:2′,3′-][1,2,5]thiadiazepin-6-yl)methyl)-5-methylpyridin-2-yl)-3-(1-ethyl-4-methyl-1H-benzo[d][1,2,3]triazol-5-yl)propanoic Acid], in experiment [1], the pKd was > 9.00. This compound gave a pEC50 in experiment [2] of 8.55.
In the same order, the values of `Cc1cnc([C@@H](c2ccn3c(C(F)(F)F)nnc3c2C)C(C)(C)C(=O)O)cc1CN1CC2(CCOCC2)Oc2nc(OCCN3CCCC3)c(C)cc2S1(=O)=O` (single isomer, unassigned) [Example 593, (*S)-2,2-Dimethyl-3-(8-methyl-3-(trifluoromethyl)-[1,2,4]triazolo[4,3-a]pyridin-7-yl)-3-(5-methyl-4-((8′-methyl-1′,1′-dioxido-7′-(2-(pyrrolidin-1-yl)ethoxy)-2,3,5,6-tetrahydrospiro[pyran-4,4′-pyrido[2,3-b][1,4,5]oxathiazepin]-2′(3′H)-yl)methyl)pyridin-2-yl)propanoic Acid] are > 9.00 and 7.05.
In the same order, the values of `Cc1cnc2c(c1)S(=O)(=O)N(Cc1cc([C@@H](c3ccc4c(nnn4C4CC4)c3C)C(C)(C)C(=O)O)cnc1C)CC1(CCOCC1)O2` (single isomer, unassigned) [Example 229, (*R)-3-(1-Cyclopropyl-4-methyl-1H-benzo[d][1,2,3]triazol-5-yl)-2,2-dimethyl-3-(6-methyl-5-((8′-methyl-1′,1′-dioxido-2,3,5,6-tetrahydrospiro[pyran-4,4′-pyrido[2,3-b][1,4,5]oxathiazepin]-2′(3′H)-yl)methyl)pyridin-3-yl)propanoic Acid] are 4.77 and 5.61.
In the same order, the values of `Cc1ccc([C@H](CC(=O)O)c2ccn3c(C(F)(F)F)nnc3c2C)cc1CN1C[C@H]2CCCCN2c2ccccc2S1(=O)=O` (single isomer, unassigned) [Example 300, (*S)-3-(3-(((*R)-5,5-Dioxido-7,7a,8,9,10,11-hexahydro-6H-benzo[f]pyrido[2,1-d][1,2,5]thiadiazepin-6-yl)methyl)-4-methylphenyl)-3-(8-methyl-3-(trifluoromethyl)-[1,2,4]triazolo[4,3-a]pyridin-7-yl)propanoic Acid] are > 9.00 and 8.30.
`Cc1ccc([C@H](CC(=O)O)c2ccn3c(C(F)(F)F)nnc3c2C)cc1CN1CC2(COC2)Oc2ncccc2S1(=O)=O` (single isomer, unassigned) [Example 260, (*S)-3-(3-((1′,1′-Dioxidospiro[oxetane-3,4′-pyrido[2,3-b][1,4,5]oxathiazepin]-2′(3′H)-yl)methyl)-4-methylphenyl)-3-(8-methyl-3-(trifluoromethyl)-[1,2,4]triazolo[4,3-a]pyridin-7-yl)propanoic Acid]: the pKd in experiment [1] was > 9.00. This compound gave a pEC50 in experiment [2] of 7.00.
In the same order, the values of `Cc1ccc([C@H](CC(=O)O)c2ccn3c(C(F)(F)F)nnc3c2C)cc1CN1C[C@@H]2CCN2c2ncccc2S1(=O)=O` (single isomer, unassigned) [Example 292, (*S)-3-(3-(((*S)-5,5-Dioxido-7,7a,8,9-tetrahydro-6H-azeto[2,1-d]pyrido[2,3-f][1,2,5]thiadiazepin-6-yl)methyl)-4-methylphenyl)-3-(8-methyl-3-(trifluoromethyl)-[1,2,4]triazolo[4,3-a]pyridin-7-yl)propanoic Acid] are > 9.00 and 7.17.
In the same order, the values of `Cc1ccc([C@@H](CC(=O)O)c2ccn3c(C(F)F)nnc3c2C)cc1CN1CC2(CCOCC2)Oc2ccc(F)cc2S1(=O)=O` (single isomer, unassigned) [Example 525, (*R)-3-(3-(Difluoromethyl)-8-methyl-[1,2,4]triazolo[4,3-a]pyridin-7-yl)-3-(3-((8-fluoro-1,1-dioxido-2′,3′,5′,6′-tetrahydrospiro[benzo[b][1,4,5]oxathiazepine-4,4′-pyran]-2(3H)-yl)methyl)-4-methylphenyl)propanoic Acid] are > 9.00 and 7.41.
Regarding `Cc1ncc([C@@H](c2ccn3c(C(F)(F)F)nnc3c2C)C(C)(C)C(=O)O)cc1CN1C[C@@H]2CCCCN2c2ncc(C#N)cc2S1(=O)=O` (single isomer, unassigned) [Example 655, (*R)-3-(5-(((*S)-3-Cyano-5,5-dioxido-7,7a,8,9,10,11-hexahydro-6H-dipyrido[2,1-d:2′,3′-f][1,2,5]thiadiazepin-6-yl)methyl)-6-methylpyridin-3-yl)-2,2-dimethyl-3-(8-methyl-3-(trifluoromethyl)-[1,2,4]triazolo[4,3-a]pyridin-7-yl)propanoic Acid], the pKd in experiment [1] is > 9.00. Also, the pEC50 in experiment [2] was 6.86.
